{
  "source": "patent US20030148518A1",
  "about": "“Method for mass propogation of podophyllum hexandrum royle using embryo culture technique” (priority 2001, published 2003)",
  "key": {"[1]": {"system": "Podophyllum hexandrum emblings", "experiment": "True leaf emergence after embling development and field transfer", "details": "media supplemented with 2.5 μM Gibberellic acid; after 12 weeks of field transfer", "experimental": "(§1) To describe in detail, the method comprises collection of mature pods of P. hexandrum Royle from their natural habitats in the Western Himalayas at an altitude ranging from 2700 m-3500 m above mean sea level during the last week of August and first week of September. Immediately after collection, the seeds were separated from the pulp. Prior to disinfection with 0.1% Bavistin and streptomycin sulphate (0.1%) for 15 minutes, followed by a thorough washing of seeds. After a 1 minute dip in 70% alcohol and surface sterilization in 0.1% mercuric chloride for 7 minutes, all traces of mercuric chloride were finally washed off by 4-5 rinses in sterile distilled water. The surface sterilized seeds were then dissected by a sharp excision with a scalpel blade at the base of the microplyar lobe and embryos were carefully squeezed out of their micropylar groove. The embryos were cultured on B-5 (Gamborg et al., 1968) medium supplemented with 3% sucrose of pH 5.8 adjusted with 1N KOH and HCl prior to the addition of agar (0.8%) and were finally sterilized at […] for 20 minutes. All the cultures were maintained in this medium for one week at 25±2° C. in dark for embryo germination. […]"}, "[2]": {"system": "Podophyllum hexandrum zygotic embryos", "experiment": "Germination of excised zygotic embryos cultured on different media supplemented with Gibberellic acid", "details": "2.5 μM Gibberellic acid in different media (B5, MS, WPM); excised zygotic embryos of different regimes", "experimental": "as §1"}},
  "data": [
    {"smiles": "C=C1C[C@]23C[C@@]1(O)CC[C@H]2[C@@]12C=C[C@H](O)[C@@](C)(C(=O)O1)[C@H]2[C@@H]3C(=O)O", "note": "[Gibberellic acid]", "values": [
      {"measurement": "true leaf emergence", "setting": "[1]", "value": "no true leaf emergence was recorded"},
      {"measurement": "embryo germination", "setting": "[2]", "value": "Germination was evoked in all the media"}
    ]}
  ]
}
